Reference: patent US20240239785A1, “SUBSTITUTED 2-(2,6-DIOXOPIPERIDIN-3-YL)-5-(1-PIPERIDIN-4-YL)ISOINDOLINE-1,3-DIONE DERIVATIVES AND USES THEREOF” (Neomorph, Inc., priority 2021, published 2024)
Structures can show the parent of a compound that is named as a salt. Where two headings read alike, the source gives them in different places.

Columns and labels:
hERG = hERG (Homo sapiens, UniProt Q12809); assay: hERG IC50
IKZF2 = target: T1, IKZF2 (Homo sapiens, UniProt Q96SW2+Q9UKS7); assay: MOLT4 IKZF2 HiBit assay; assay type: cell-based; conditions: MOLT4 IKZF2 HiBit cells; for DC50: 6 hours incubation, 10-point dose response from 30 μM; for Dmax at 30 µM: MOLT-4, 6 hr (Dmax), read-out: % reduction of IKZF2 @ 30 μM (6 hr)
T1 construct: endogenous in cells; host or cells: MOLT4 (CRISPR/Cas9 HiBit knock-in at the IKZF2 locus)
Protocol: MOLT4 IKZF2 HiBit Assay Protocol:
This protocol used MOLT4 cells that were engineered using CRISPR/Cas9-mediated genomic insertion of HiBit, tagged to the N terminus of the IKZF2 coding sequence. Day 1. A 10-point dose response was created starting from 30 μM down to InM using a Tecan D300e. Next was added 8,000 cells/well of the MOLT4 IKZF2 HiBit cells to the compound plate. The compounds plate was incubated for 6 hours. Day 2. Nano-Glo HiBit Lytic Buffer/Nano-Glo HiBit Lytic substrate/LgBit Protein mix was added to each well and the compound plate was incubated for 15 minutes. Finally, luminescence signal was read using a BMG Labtech PHERAstar FSX. Data was normalized to DMSO and graphed using GraphPad Prism to determine the concentration points at which 50% of HiBiT-Helios degradation was achieved by each compound. The extent of degradation (range of luminescence) from the highest to lowest concentration points was calculated to determine Dmax.

T1 sequence (Q9UKS7 whole entry): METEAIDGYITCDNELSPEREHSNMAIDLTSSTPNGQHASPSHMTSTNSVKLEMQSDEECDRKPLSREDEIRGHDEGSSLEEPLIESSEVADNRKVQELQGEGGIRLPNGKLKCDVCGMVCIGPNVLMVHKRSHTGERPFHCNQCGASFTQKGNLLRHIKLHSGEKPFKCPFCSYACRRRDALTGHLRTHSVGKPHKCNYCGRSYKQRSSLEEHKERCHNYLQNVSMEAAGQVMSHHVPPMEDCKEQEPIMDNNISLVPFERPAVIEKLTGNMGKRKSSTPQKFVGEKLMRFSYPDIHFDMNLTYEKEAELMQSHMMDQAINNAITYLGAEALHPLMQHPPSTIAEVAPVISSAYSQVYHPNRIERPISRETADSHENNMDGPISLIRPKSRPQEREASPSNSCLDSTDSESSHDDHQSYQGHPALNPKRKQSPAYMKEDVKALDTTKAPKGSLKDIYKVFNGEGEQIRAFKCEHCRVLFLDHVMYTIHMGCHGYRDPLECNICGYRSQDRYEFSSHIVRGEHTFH
T1 sequence (Q96SW2 whole entry): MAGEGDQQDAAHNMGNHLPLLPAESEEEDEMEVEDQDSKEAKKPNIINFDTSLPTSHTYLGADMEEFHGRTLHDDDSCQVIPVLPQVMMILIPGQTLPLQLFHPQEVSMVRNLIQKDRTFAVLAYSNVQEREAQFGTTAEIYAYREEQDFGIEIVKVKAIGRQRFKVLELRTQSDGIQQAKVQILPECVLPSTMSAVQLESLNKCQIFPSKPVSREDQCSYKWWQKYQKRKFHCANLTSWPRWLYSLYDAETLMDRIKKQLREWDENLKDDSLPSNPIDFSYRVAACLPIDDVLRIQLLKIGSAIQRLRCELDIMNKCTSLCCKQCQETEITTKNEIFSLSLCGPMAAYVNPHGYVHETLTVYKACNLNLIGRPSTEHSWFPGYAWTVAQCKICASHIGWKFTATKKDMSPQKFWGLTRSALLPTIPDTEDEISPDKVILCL
T1 sequence (Q16531 whole entry partner): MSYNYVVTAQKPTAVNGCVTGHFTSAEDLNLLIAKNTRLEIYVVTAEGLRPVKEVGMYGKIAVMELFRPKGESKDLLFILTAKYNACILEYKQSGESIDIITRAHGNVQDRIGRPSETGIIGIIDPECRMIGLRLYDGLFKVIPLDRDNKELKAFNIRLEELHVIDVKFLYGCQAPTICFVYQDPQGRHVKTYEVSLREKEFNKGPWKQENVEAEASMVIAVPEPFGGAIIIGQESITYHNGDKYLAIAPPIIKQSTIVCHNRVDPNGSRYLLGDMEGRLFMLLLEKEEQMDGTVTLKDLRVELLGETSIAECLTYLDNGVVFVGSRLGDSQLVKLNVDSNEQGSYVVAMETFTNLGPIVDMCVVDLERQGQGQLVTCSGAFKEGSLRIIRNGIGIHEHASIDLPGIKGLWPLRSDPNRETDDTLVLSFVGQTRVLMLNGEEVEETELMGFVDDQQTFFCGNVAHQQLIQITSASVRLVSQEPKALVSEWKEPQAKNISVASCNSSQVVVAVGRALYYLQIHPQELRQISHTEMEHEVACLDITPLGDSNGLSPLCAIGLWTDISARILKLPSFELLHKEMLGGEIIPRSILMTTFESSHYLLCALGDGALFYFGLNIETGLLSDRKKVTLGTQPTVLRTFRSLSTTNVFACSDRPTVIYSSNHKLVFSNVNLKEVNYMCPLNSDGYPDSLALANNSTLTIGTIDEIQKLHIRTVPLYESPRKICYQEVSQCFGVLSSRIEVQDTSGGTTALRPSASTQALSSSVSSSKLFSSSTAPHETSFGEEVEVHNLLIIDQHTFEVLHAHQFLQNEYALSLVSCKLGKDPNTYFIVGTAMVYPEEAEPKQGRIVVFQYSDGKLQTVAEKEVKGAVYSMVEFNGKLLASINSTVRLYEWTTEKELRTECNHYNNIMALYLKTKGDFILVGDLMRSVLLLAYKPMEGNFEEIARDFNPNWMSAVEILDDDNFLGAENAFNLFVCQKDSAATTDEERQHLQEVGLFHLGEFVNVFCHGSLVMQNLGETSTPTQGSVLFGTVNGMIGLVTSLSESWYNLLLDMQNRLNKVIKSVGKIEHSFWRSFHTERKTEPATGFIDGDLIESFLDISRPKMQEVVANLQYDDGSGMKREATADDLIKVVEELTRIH
hERG, sequence (Q12809 whole entry): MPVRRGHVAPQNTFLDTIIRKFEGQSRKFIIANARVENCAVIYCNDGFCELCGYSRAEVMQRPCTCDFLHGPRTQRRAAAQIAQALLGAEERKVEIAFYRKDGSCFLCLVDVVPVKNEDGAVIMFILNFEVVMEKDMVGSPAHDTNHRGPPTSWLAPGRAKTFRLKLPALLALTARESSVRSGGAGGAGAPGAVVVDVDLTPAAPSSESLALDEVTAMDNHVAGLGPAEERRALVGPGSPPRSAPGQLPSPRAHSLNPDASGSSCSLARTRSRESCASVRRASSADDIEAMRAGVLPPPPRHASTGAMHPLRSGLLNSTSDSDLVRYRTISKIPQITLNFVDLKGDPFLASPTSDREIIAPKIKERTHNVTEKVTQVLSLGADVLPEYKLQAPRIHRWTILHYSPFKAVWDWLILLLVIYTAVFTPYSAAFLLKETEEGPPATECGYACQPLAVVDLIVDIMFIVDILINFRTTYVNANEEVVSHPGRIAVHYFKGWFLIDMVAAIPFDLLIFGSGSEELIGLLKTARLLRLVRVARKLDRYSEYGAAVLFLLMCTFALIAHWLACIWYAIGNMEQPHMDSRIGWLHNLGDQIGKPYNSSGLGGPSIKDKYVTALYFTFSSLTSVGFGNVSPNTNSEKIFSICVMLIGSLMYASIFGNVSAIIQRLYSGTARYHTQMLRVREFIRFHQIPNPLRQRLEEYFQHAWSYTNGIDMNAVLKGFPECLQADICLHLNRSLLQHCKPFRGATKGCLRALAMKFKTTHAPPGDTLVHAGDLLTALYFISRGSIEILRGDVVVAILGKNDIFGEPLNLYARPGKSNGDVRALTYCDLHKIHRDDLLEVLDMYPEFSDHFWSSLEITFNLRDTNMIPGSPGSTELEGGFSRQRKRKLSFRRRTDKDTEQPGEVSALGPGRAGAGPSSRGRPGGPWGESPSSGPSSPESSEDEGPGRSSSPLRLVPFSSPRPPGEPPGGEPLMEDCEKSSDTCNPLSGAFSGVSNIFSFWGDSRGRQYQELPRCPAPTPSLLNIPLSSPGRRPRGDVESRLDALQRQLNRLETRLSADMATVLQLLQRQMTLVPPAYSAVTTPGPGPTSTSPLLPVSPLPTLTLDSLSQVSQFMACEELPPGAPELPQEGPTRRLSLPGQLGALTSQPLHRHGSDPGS

| SMILES | IC50 (hERG) | DC50 (IKZF2) | Dmax at 30 µM (IKZF2) | IC50 (hERG; human) |
| --- | --- | --- | --- | --- |
| O=C1CCC(N2C(=O)c3ccc(C4(O)CCN(C5CCc6ncccc65)CC4)cc3C2=O)C(=O)N1 (stereo not shown) [Compound 7, 5-(1-{5H,6H,7H-cyclopenta[b]pyridin-5-yl}-4-hydroxypiperidin-4-yl)-2-(2,6-dioxopiperidin-3-yl)-2,3-dihydro-1H-isoindole-1,3-dione, HCl salt] | > 30000 nM | 9 nM | 90% | – |
| CC1CC(O)(c2ccc3c(c2)C(=O)N(C2CCC(=O)NC2=O)C3=O)CCN1Cc1ccccc1 (stereo not shown) [Compound 15, 5-(1-benzyl-4-hydroxy-2-methylpiperidin-4-yl)-2-(2,6-dioxopiperidin-3-yl)-2,3-dihydro-1H-isoindole-1,3-dione] | > 30000 nM | 12 nM | 66% | – |
| O=C1CCC(N2C(=O)c3ccc(C4(O)CCN(Cc5ccc(F)c(F)c5)CC4)cc3C2=O)C(=O)N1 (stereo not shown) [Compound 60, 5-{1-[(3,4-difluorophenyl)methyl]-4-hydroxypiperidin-4-yl}-2-(2,6-dioxopiperidin-3-yl)-2,3-dihydro-1H-isoindole-1,3-dione, HCl salt] | 23000 nM | 6 nM | 80% | – |
| O=C1CCC(N2C(=O)c3ccc(C4(O)CCN(Cc5ccc6scnc6c5)CC4)cc3C2=O)C(=O)N1 (stereo not shown) [Compound 111, 5-{1-[(1,3-benzothiazol-5-yl)methyl]-4-hydroxypiperidin-4-yl}-2-(2,6-dioxopiperidin-3-yl)-2,3-dihydro-1H-isoindole-1,3-dione, HCl salt] | > 30000 nM | 5 nM | 83% | – |
| O=C1CCC(N2C(=O)c3ccc(C4(O)CCN(Cc5ccc(F)cc5)CC4)c(F)c3C2=O)C(=O)N1 (stereo not shown) [Compound 132, 2-(2,6-dioxopiperidin-3-yl)-4-fluoro-5-(1-(4-fluorobenzyl)-4-hydroxypiperidin-4-yl)isoindoline-1,3-dione] | – | 7 nM | 79% | 30000 nM |
| CCCN1CCC(O)(c2ccc3c(c2F)C(=O)N(C2CCC(=O)NC2=O)C3=O)CC1 (stereo not shown) [Compound 148, 2-(2,6-dioxopiperidin-3-yl)-4-fluoro-5-(4-hydroxy-1-propylpiperidin-4-yl)-2,3-dihydro-1H-isoindole-1,3-dione, HCl salt] | – | 30 nM | 73% | – |
| O=C1CCC(N2C(=O)c3ccc(C4(O)CCN(CC(O)c5ccccc5)CC4)cc3C2=O)C(=O)N1 (stereo not shown) [Compound 149, 2-(2,6-dioxopiperidin-3-yl)-5-(4-hydroxy-1-(2-hydroxy-2-phenylethyl)piperidin-4-yl)isoindoline-1,3-dione] | – | 22 nM | 76% | – |
